Series [1] deals with Plasmodium falciparum. Put plainly: Inhibition of Plasmodium falcipuram recombinant HDAC1 using HDAC-Glo I/II as substrate at 50 to 800 nM preincubated for 90 mins by luminescence based microplate reader analysis. The settings on record: dose 50-800 nM.
The test system of series [2] is Plasmodium falciparum. The series is described as follows: Antimalarial activity against synchronized Plasmodium falcipuram 3D7 infected in human RBC assessed as irreversible inhibition of parasite growth at trophozoite stage at 40 nM treated at 17 to 29 hpi incubated for 12 hrs followed by compound washout and replacement with fresh medium without compounds and measured after 4 days by flow cytometry. The format is functional, organism-based.

Series [3] relates to Plasmodium falciparum. The series is described as follows: Antimalarial activity against synchronized Plasmodium falcipuram 3D7 infected in human RBC assessed as irreversible inhibition of parasite growth at ring stage at 40 nM treated at 5 to 17 hpi incubated for 12 hrs followed by compound washout and replacement with fresh medium without compounds and measured after 4 days by flow cytometry. The format is functional, organism-based.

The test system of another series is Plasmodium berghei. Put plainly: Antimalarial activity against liver stage transgenic Plasmodium berghei ANKA sporozoites transfected with GFP-Luc infected in BALB/c mouse assessed as delayed progression of infection at 30 mg/kg, iv measured for 1 to 4 days post-administration by IVIS spectrum in vivo imaging analysis. Conditions: time 1-4 day. The class given is functional, organism-based.

Series [4] relates to Plasmodium falciparum. Put plainly: In vivo inhibition of C-terminal glmS fused HDAC2 in Plasmodium falcipuram 3D7 assessed as inhibition of parasite growth incubated for 4 hrs followed by compound washout and replacement with fresh medium with compounds measured after 68 hrs by SYBR Green I staining based fluorescence analysis. The format is functional, organism-based.
The subject of series [5] is Plasmodium yoelii. Put plainly: Antimalarial activity against blood stage Plasmodium yoelii infected in BALB/c mouse assessed as inhibition of parasitemia at 60 mg/kg, ip qd for 5 days and measured after 30 days. The class given is functional, organism-based. Conditions: time 30.0 day.
The subject of series [6] is Plasmodium yoelii. The series is described as follows: Antimalarial activity against blood stage Plasmodium yoelii infected in BALB/c mouse assessed as parasite killing by measuring parasitemia at 30 to 90 mg/kg, ip qd for 5 days and measured on day 60. The class given is functional, organism-based. The settings on record: dose 30-90 mg/kg, time 60.0 day.
Series [7] in a line: Metabolic stability in rat liver microsomes assessed as half life at […] incubated for 45 mins in presence of NADPH by LC/MS analysis. The class given is ADME, Microsome.
For series [8], the system named is Plasmodium falciparum. The series is described as follows: Antimalarial activity against asexual blood stage wild-type Plasmodium falciparum 3D7 assessed as parasite growth inhibition incubated for 72 hrs by SYBR Green I staining based fluorescence analysis. The class given is functional, organism-based. Conditions: 3D7, 72 h.
A short description of series [9]: Drug concentration in BALB/c mouse plasma at 5 mg/kg, ip measured upto 24 hrs by LC-MS/MS analysis. The format is ADME, organism-based.
A further series deals with Histone deacetylase 1 (Homo sapiens, UniProt Q13547). Put plainly: Inhibition of recombinant human full length C-terminal His/FLAG tagged HDAC1 (1 to 482 residues) expressed in baculovirus-infected Sf9 cells using Ac-peptide as substrate incubated for 4 hrs.
Sequence of Histone deacetylase 1 (Q13547 whole entry, the tested form may be a part): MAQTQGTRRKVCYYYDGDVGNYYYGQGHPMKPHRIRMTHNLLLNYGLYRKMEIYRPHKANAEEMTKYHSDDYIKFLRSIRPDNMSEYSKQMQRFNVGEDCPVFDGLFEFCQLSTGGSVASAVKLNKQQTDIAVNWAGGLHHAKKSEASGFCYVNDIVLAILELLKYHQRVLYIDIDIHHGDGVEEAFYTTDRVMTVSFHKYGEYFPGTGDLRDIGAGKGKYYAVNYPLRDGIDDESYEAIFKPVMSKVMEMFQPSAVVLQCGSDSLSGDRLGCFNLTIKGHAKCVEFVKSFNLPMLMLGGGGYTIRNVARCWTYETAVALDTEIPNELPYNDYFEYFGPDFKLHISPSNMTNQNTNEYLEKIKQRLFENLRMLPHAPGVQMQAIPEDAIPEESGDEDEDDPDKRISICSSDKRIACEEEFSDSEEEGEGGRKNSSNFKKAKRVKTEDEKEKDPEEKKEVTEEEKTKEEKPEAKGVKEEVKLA
Series [10] is described as follows: Metabolic stability in mouse liver microsomes assessed as half life at […] incubated for 45 mins in presence of NADPH by LC/MS analysis. The format is ADME, Microsome. Conditions: liver microsomes.
In series [11] the test system is Plasmodium falciparum. The series is described as follows: Antimalarial activity against synchronized Plasmodium falcipuram 3D7 infected in human RBC assessed as fold reduction in reinvasion of ring stage parasites at 40 nM incubated for 12 hrs followed by compound washout and replacement with fresh medium without compounds and measured at 50 hrs post infection by flow cytometry. The class given is functional.

Series [12] deals with T1, NAD-dependent protein deacetylase sirtuin-2 (Homo sapiens, UniProt Q8IXJ6).
T1 sequence (Q8IXJ6 whole entry): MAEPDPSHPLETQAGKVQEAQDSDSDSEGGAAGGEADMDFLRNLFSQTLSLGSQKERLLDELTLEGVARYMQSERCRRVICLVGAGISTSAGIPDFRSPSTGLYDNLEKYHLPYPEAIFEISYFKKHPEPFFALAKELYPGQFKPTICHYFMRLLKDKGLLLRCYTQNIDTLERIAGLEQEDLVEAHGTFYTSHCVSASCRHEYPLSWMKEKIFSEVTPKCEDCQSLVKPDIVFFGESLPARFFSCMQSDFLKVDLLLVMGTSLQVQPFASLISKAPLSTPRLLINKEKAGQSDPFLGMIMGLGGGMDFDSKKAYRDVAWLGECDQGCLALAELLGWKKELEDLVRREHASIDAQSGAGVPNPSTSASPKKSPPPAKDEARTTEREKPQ
The series is described as follows: Inhibition of human C-terminal His-tagged SIRT2 (50 to 356 residues) expressed in Escherichia coli using Ac-peptide as substrate incubated for 4 hrs followed by trypsin addition and further incubated for 2 hrs.

A further series addresses Histone deacetylase 2 (Homo sapiens, UniProt Q92769). The series is described as follows: biochemical. The class given is cell-based, Sf9.
For a further series, the target named is Histone deacetylase 3 (Homo sapiens, UniProt O15379). Put plainly: Inhibition of human C-terminal His tagged HDAC3 (1 to 428 residues) expressed in baculovirus-infected Sf9 cells using Ac-peptide as substrate incubated for 4 hrs.
Sequence of Histone deacetylase 3 (O15379 whole entry, the tested form may be a part): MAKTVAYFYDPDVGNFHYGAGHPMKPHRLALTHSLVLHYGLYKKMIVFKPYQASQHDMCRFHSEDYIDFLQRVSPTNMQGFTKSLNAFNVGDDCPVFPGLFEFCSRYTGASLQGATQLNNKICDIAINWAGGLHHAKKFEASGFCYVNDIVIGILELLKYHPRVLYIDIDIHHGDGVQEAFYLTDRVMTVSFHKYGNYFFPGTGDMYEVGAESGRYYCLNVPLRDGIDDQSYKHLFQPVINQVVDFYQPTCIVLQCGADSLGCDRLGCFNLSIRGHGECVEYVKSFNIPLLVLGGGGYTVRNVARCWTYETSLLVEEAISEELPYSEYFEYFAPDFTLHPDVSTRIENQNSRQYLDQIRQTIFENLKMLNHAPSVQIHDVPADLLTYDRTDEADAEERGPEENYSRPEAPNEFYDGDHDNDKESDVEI
The subject of series [13] is Plasmodium falciparum. The series is described as follows: Antimalarial activity against asexual blood stage quinine-resistant Plasmodium falcipuram C2A assessed as parasite growth inhibition incubated for 72 hrs by SYBR Green I staining based fluorescence analysis. The format is functional, organism-based.
Series [14] is described as follows: Cmax in BALB/c mouse at 5 mg/kg, ip measured upto 24 hrs by LC-MS/MS analysis. The class given is ADME, organism-based. Further details: route intraperitoneal, dose 5 mg/kg, time <=24. The settings on record: in vivo.

Structures are written as SMILES. Calls of active or inactive are those of the source. The calls are words filed in the database; no cut-off is given here. Where only a bound is given, the exact number is not on record here.

Sequence of Histone deacetylase 2 (Q92769 whole entry, the tested form may be a part): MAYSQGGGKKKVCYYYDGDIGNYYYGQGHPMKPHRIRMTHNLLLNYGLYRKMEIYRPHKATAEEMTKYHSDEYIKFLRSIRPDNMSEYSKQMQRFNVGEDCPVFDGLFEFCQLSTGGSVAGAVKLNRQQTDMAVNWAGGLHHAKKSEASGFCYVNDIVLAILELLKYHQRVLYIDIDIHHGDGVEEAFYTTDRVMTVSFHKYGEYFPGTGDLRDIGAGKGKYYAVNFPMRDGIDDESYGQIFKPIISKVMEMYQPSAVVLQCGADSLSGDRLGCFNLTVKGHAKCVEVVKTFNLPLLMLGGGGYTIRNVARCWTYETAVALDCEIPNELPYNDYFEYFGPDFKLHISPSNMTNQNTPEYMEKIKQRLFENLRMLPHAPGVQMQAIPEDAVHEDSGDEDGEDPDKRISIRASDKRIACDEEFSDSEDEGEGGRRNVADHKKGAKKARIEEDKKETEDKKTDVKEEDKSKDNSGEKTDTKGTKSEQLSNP
Description for Histone deacetylase 2: Inhibition of recombinant human full length C-terminal His tagged HDAC2 (1 to 488 residues) expressed in baculovirus-infected Sf9 insect cells using Ac-peptide as substrate incubated for 4 hrs

Take `Cl.Cn1cc(CN2CC3(CCN(c4ncc(C(=O)NO)cn4)C3)C2)c2ccc(C#N)cc21`: the inhibition result in the series on Plasmodium falciparum [1] and in the series on Plasmodium falciparum [4] was “Active” in each case. For the same molecule, the result with Plasmodium falciparum [2], in the series with Plasmodium falciparum [3], with Plasmodium berghei, in the series on Plasmodium yoelii [5] and in the series on Plasmodium yoelii [6] was Active. Moreover, the half-life in series [7] was greater than 2 h; in series [10], 1.34 h. Besides, the IC50 with Plasmodium falciparum [8] is 1.26 nM; at Histone deacetylase 1, 2.2 nM; in series [12], greater than 10000 nM; at Histone deacetylase 2, 5.1 nM; against Histone deacetylase 3, 5.2 nM; with Plasmodium falciparum [13], 2.18 nM. Further, the concentration at 24 h in [9] was found to be 89 ng/mL. The “fold change (FC)” value in the series with Plasmodium falciparum [11] came to 10. In series [14], this molecule yielded a Cmax of 539 ng/mL.

The values above are taken from ChEMBL document CHEMBL5046276 (J Med Chem, 2022).
